Results taken from PubChem BioAssay (NCI).
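In this assay, cells in 96-well plates receive the compound at five concentrations for 48 hours. Endpoints are linearly interpolated between the surrounding concentrations. GI50: concentration for 50% inhibition of growth. TGI marks complete inhibition of growth.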

Assays:
Assay in all cases: growth of human tumour cells (NCI), 48 h
NCI-H226 lung = test system: NCI-H226 lung
SK-MEL-5 melanoma = test system: SK-MEL-5 melanoma
OVCAR-5 ovarian = test system: OVCAR-5 ovarian
MDA-MB-231 breast = test system: MDA-MB-231 breast
SR leukemia = test system: SR leukemia
SF-268 CNS = test system: SF-268 CNS
SF-539 CNS = test system: SF-539 CNS
KM12 colon = test system: KM12 colon
MALME-3M melanoma = test system: MALME-3M melanoma
OVCAR-3 ovarian = test system: OVCAR-3 ovarian

Row | SMILES | TGI (NCI-H226 lung) [µM] | TGI (SK-MEL-5 melanoma) [µM] | TGI (OVCAR-5 ovarian) [µM] | TGI (MDA-MB-231 breast) [µM] | TGI (SR leukemia) [µM] | TGI (SF-268 CNS) [µM] | TGI (SF-539 CNS) [µM] | TGI (KM12 colon) [µM] | TGI (MALME-3M melanoma) [µM] | GI50 (NCI-H226 lung) [µM] | GI50 (SK-MEL-5 melanoma) [µM] | GI50 (OVCAR-5 ovarian) [µM] | GI50 (MDA-MB-231 breast) [µM] | GI50 (SR leukemia) [µM] | GI50 (SF-268 CNS) [µM] | GI50 (OVCAR-3 ovarian) [µM] | TGI (OVCAR-3 ovarian) [µM] | GI50 (SF-539 CNS) [µM] | GI50 (KM12 colon) [µM] | GI50 (MALME-3M melanoma) [µM]
1 | CC1(C)OC2C(=O)C=C(COCc3ccccc3)C2O1 (stereo not given) | 61.5 | 25.8 | 84.6 | > 100 | > 100 | > 100 | 60.3 | 51.1 | 45 | – | – | – | – | – | – | – | – | – | – | –
2 | CCCCn1c(=O)c2c(nc3n2CCCN3CCc2ccc(OCC(=O)NCCN(CC)CC)cc2)n(CCCC)c1=O | 16.9 | 1.65 | 18 | 7.26 | 3.02 | 12.8 | 7 | 13.5 | 1.98 | 7.13 | 0.864 | 7.58 | 1.91 | 1.14 | 5.16 | 4.7 | 11.2 | 1.87 | 6.49 | 0.922
3 | COC12c3ccccc3-c3ccccc3C1[C@H]1C(=O)OC(=O)[C@H]12 (stereo not given in full) | > 10 | > 10 | > 10 | > 10 | > 10 | > 10 | > 10 | > 10 | > 10 | – | – | – | – | – | – | – | > 10 | – | – | –
4 | COc1cc(/C=C/[N+](=O)[O-])cc(Br)c1OC | 52.8 | 4.93 | 30.8 | 8.05 | > 100 | 13.2 | 6.62 | 10.1 | 8.13 | 16.7 | 2.13 | 14.3 | 3.03 | 2.02 | 3.64 | 3.23 | 10.2 | 2.49 | 3 | 2.61
5 | C[C@@H]1O[C@@H](O[C@H]2CC[C@@]3(C)[C@H](CCC4[C@@H]3C(O)C[C@]3(C)[C@@H](c5ccc(=O)oc5)CC[C@]43O)C2)[C@H](O)[C@H](O)[C@H]1O (stereo not given in full) | 0.0107 | 0.0107 | < 0.0113 | 0.0369 | 0.0109 | 0.00502 | 0.00897 | 0.0157 | 0.0166 | 0.00608 | 0.00561 | 0.00583 | 0.0112 | 0.00388 | < 0.00325 | 0.00431 | 0.00597 | 0.00421 | 0.00696 | 0.00659
6 | COc1ccc(-c2cc(=O)c3c(OC)c(OC)c(OC)c(OC)c3o2)cc1 | > 100 | > 100 | > 100 | > 100 | > 100 | > 100 | > 100 | – | > 100 | – | – | – | – | – | – | – | > 100 | – | – | –
7 | COC(=O)c1nc(-c2ccccc2)oc1S(=O)(=O)n1nc(C)cc1N | 41.1 | 29.7 | 28.8 | 21.8 | 3.94 | 41.3 | 27.7 | 32.4 | 4.06 | 16.5 | 15.5 | 13.8 | 9.03 | 0.933 | 18.9 | 2.03 | 3.99 | 14.4 | 16.9 | 1.78
8 | O=C(Nc1cccc(Nc2ncc(Br)c(NCCc3cnc[nH]3)n2)c1)N1CCCC1 | 4.74 | 22.1 | 73.1 | 29.2 | 28 | 13.9 | 9.17 | 11.5 | 20 | 0.771 | – | 9.29 | 4.07 | 0.527 | 1.41 | 4.62 | 24.3 | 0.897 | 0.869 | 6.19
9 | CC(=O)Oc1ccccc1C(=O)/C=C/c1cccc([N+](=O)[O-])c1 | 30.6 | 9.07 | 17.1 | 13.5 | 7.7 | 12.4 | 4.93 | 6.23 | 30.5 | 10.9 | 3.03 | 4.75 | 3.48 | 2.25 | 3.58 | 2.6 | 6.17 | 2.08 | 2.4 | 13.6
10 | Cc1ccc(NC(=O)c2ccccc2C(=O)O)cc1C | > 100 | > 100 | > 100 | > 100 | > 100 | > 100 | > 100 | > 100 | > 100 | – | – | – | – | – | – | – | > 100 | – | – | –
11 | CCN1C(=O)N(CC)C2C1NN=c1s/c(=C3\C(=O)N(CCc4ccccc4)c4ccccc43)c(=O)n12 (stereo not given) | 3.78 | 1.23 | – | 7.51 | > 36.2 | 27.4 | 0.643 | 11.2 | 20 | 0.811 | 0.305 | 0.927 | 0.844 | 0.461 | 1.95 | 0.291 | 0.901 | 0.228 | 0.38 | 1.04
12 | CCN(Cc1ccc(Cl)s1)c1ccc(CO)c(Cl)c1 | 0.232 | 18.1 | 0.297 | 26.4 | 57.1 | > 60 | 28.5 | 31.6 | 28.1 | 0.0915 | 1.9 | 0.0644 | 8.74 | 17.6 | 17.7 | 0.295 | 1.21 | 13 | 14.7 | 10
13 | Cc1c(C2=C(c3cn(C)c4ccccc34)C(=O)NC2=O)c2ccccc2n1C | > 25 | > 25 | > 25 | > 25 | > 25 | > 25 | > 6.77 | > 25 | > 25 | 4.33 | 2.29 | > 25 | > 18.6 | 1.18 | 4.82 | 0.882 | 4.73 | 0.921 | 3.87 | > 25
14 | COc1cc2c(c(OC)c1OC)-c1ccc(SC)c(=O)cc1[C@@H](NC1OC(CO)C(O)C(O)C1O)CC2 (stereo not given in full) | > 100 | 0.195 | > 100 | > 100 | > 100 | > 100 | 0.0703 | – | > 100 | 1.52 | 0.0288 | 0.0519 | 0.0341 | 0.0127 | 0.049 | 0.0244 | 0.0762 | 0.0243 | 0.024 | 44.8
